# Measurements published in article PMC12505902, “Inhibitors of trehalose-6-phosphate synthase activity in fungal pathogens compromise thermal tolerance pathways” (mBio, 2025).
# Biological target: T1, 6xHis-CaTps1 (Candida albicans, UniProt Q92410)
# T1 construct: Briefly, the full-length; thrombin cleavage site (pET-28a linker) (N); made in house; host or cells: E. coli BL21(DE3)pLysS
# T1 sequence (Q92410 1-478): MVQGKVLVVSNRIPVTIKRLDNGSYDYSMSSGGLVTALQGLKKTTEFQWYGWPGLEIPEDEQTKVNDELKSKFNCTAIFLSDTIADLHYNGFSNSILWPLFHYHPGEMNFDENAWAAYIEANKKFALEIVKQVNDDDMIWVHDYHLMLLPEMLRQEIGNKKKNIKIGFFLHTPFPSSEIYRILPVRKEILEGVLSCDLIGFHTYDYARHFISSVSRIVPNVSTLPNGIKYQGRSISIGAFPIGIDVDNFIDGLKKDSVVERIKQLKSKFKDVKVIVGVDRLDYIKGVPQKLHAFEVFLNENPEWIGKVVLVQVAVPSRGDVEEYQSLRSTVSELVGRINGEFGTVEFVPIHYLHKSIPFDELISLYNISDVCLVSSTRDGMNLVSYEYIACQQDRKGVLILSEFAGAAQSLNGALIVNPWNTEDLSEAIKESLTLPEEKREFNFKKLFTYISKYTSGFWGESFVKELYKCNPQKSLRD
# Experiment: Spectrophotometric-coupled Tps1 enzyme activity assay
# Format: biochemical, C. albicans
# Details: 1 mM 4456dh, 4°C for 16 hours
# Protocol: Fig 2 4456dh binds Tps1 and inhibits Tps1 activity. (A) Structure of 4456dh. (B and C) Glo-melt thermal shift assays reveal 4456dh destabilizes 6xHis-CaTps1 (B) and 6xHis-CnTps1 (C). The first derivative of the raw data was used to determine the melting temperature of 1 µM 6xHis-CaTps1 (B) and 1 µM 6xHis-CnTps1 (C) treated without (black) or with 2 mM 4456dh (red). […] The resulting dose-response curves were fitted to a one-site binding model to extract Kd values; the SD was calculated using the Kd values from each independent experiment (n = 3). (F) Tps1 enzyme activity assay with 5 µM 6xHis-CaTps1 (F) and 6xHis-CnTps1 (G) ±1 mM 4456dh. Error bars represent SE. […]
# The ability of 4456dh to inhibit the activity of CaTps1 was tested using a spectrophotometric-coupled Tps1 enzyme assay, in which recombinant 6xHis-CaTps1 was incubated with 1 mM 4456dh at 4°C for 16 hours. […] Similarly, the effect of 1 mM 4456dh on 6xHis-CnTps1 activity was determined. […]
# 82 determined by SDS-PAGE analysis, were pooled and concentrated to 1 mg/mL for downstream […]
# 93 The data were acquired with MO.Control 1.5.3 (NanoTemper Technologies GmbH). Recorded
# 94 data were analyzed with MO.Affinity Analysis 2.2.7 (NanoTemper Technologies GmbH). […]
# 100 2X Glo-melt dye. Thermal denaturation was measured using an RT-PCR thermocycler (BioRad) […]
# 102 determined by identifying the inflection point of the derivative data. […]
smiles,measurement,value
Cn1cc(-c2csc(NC(=O)Cc3ccccn3)n2)cn1 [Compound 4456dh],reduction of 6xHis-CaTps1 activity,approximately 30%
